Our source for the EC50 and IC50 values is patent publication US20260306644A1, “ANTIBODY RECRUITING MOLECULES FOR THE TREATMENT OF CORONAVIRUS DISEASE-19” (priority 2023, published 2026).

“And” between values parts separate entries of the source, which are not always exact repeats. Identical values can stand only once. Like-named read-outs stand apart in the source and are kept apart here. Positions of bridges follow the written chain, without caps; N, C: chain ends. Bounds are passed on as bounds.

Experiment [1] deals with SARS-CoV-2 Spike protein (Severe acute respiratory syndrome coronavirus 2, UniProt P0DTC2). Kind of experiment: Ternary binding of SARS-CoV-2 Spike protein (293T cells expressing Spike-GFP, IgG-AF647, flow cytometry). The format is cell-based. Conditions: IgG-AF647 10 μg/ml, repeat values/batches listed separately, read-out: SARS-CoV-2 Ternary binding EC50. In general terms: In flow cytometry, cells or beads pass a laser one at a time.

For experiment [2], the target named is T1, SARS-CoV-2 Spike A (wild-type) (Severe acute respiratory syndrome coronavirus 2, UniProt P0DTC2).
T1 construct: purchased Meso Scale Diagnostics, LLC V-PLEX SARS-CoV-2 Panel 13 (ACE2) Kit / Panel 23 (ACE2) Kit
The experiment in a line: MSD ACE2 competition assay (inhibition of Spike binding with ACE2, ECL), A (wild-type). The note with it: IC50 Wild Type, Wild Type Spike.

For experiment [3], the system named is Spike RBD coated magnetic beads / RAW 264.7 macrophages. The experiment in a line: Antibody-dependent cellular phagocytosis (ADCP), RAW 264.7 macrophages and Spike RBD coated magnetic beads, flow cytometry. The format is cell-based. The note with it: 37° C., 2 hours, read-out: SARS-COV-2 ADCP EC50. The protocol: The ability of the compounds to mediate antibody-dependent cellular phagocytosis (ADCP) was assessed using RAW 264.7 macrophages and Spike RBD coated magnetic beads (https://www.acrobiosystems.com/P3194-SARS-CoV-2-Spike-RBD-coupled-Magnetic-Beads.html). Spike RBD coated magnetic beads (3 ul per well) were added to each well of a round bottom 96-well plates. RAW264.7 cells (50,000 cells per well) were added to the beads. Next, the compounds were administered to predetermined final concentrations. The cell-bead mixtures were incubated at 37° C. for 2 hours. The mixtures were then analyzed by flow cytometry.

[4] abbreviates: 293T cells expressing Spike-GFP.

A word on the EC50: it is the concentration at which the effect is half-maximal. A word on the IC50: it is the concentration that inhibits the measured activity by half. A high value points to lower potency. With “DKEWILQKIYEIMRLLDELGHAEASMRVSDLIYEFMKKGDERLLEEAERLLEEVERGGGGGGGGDCAWHLGELVWCT-NH2 (disulfide 66-76) [Compound 169]”, the 50% effective concentration (EC50) in experiment [1] (setting [4]) was found to be 0.01 nM; in experiment [3], 0.53 nM. The compound further came in with an IC50 in experiment [2] of 1.22 nM.

As to “Ac-DKEWILQKIYEIMRLLDELGHAEASMRVSDLIYEFMKKGDERLLEEAERLLEEVERPASPASPASPASDCAWHLGELVWCT (disulfide 70-80) [Compound 165]”, the half-maximal effective concentration (EC50) in experiment [1] ([…]) was determined as 0.11 nM; in experiment [3], 0.07 nM. Besides, the IC50 in experiment [2] came to 0.83 nM.

Regarding “Ac-DKEWILQKIYEIMRLLDELGHAEASMRVSDLIYEFMKKGDERLLEEAERLLEEVERGGGGDCAWHLGELVWCT-NH2 (disulfide 62-72) [Compound 144]”, the half-maximal effective concentration (EC50) in experiment [1] (setting [4]) was 0.03 nM; in experiment [3], 0.61 nM. Moreover, the IC50 in experiment [2] came to 1.17 nM.

`CC[C@H](C)[C@H](NC(=O)[C@H](CC(C)C)NC(=O)[C@H](CC(=O)O)NC(=O)[C@H](CO)NC(=O)[C@@H](NC(=O)[C@H](CCCNC(=N)N)NC(=O)[C@H](CCSC)NC(=O)[C@H](CO)NC(=O)[C@H](C)NC(=O)[C@H](CCC(=O)O)NC(=O)[C@H](C)NC(=O)[C@H](Cc1c[nH]cn1)NC(=O)CNC(=O)[C@H](CC(C)C)NC(=O)[C@H](CCC(=O)O)NC(=O)[C@H](CC(=O)O)NC(=O)[C@H](CC(C)C)NC(=O)[C@H](CC(C)C)NC(=O)[C@H](CCCNC(=N)N)NC(=O)[C@H](CCSC)NC(=O)[C@@H](NC(=O)[C@H](CCC(=O)O)NC(=O)[C@H](Cc1ccc(O)cc1)NC(=O)[C@@H](NC(=O)[C@H](CCCCN)NC(=O)[C@H](CCC(N)=O)NC(=O)[C@H](CC(C)C)NC(=O)[C@@H](NC(=O)[C@H](Cc1c[nH]c2ccccc12)NC(=O)[C@H](CCC(=O)O)NC(=O)[C@H](CCCCN)NC(=O)[C@H](CC(=O)O)NC(C)=O)[C@@H](C)CC)[C@@H](C)CC)[C@@H](C)CC)C(C)C)C(=O)N[C@@H](Cc1ccc(O)cc1)C(=O)N[C@@H](CCC(=O)O)C(=O)N[C@@H](Cc1ccccc1)C(=O)N[C@@H](CCSC)C(=O)N[C@@H](CCCCN)C(=O)N[C@@H](CCCCN)C(=O)NCC(=O)N[C@@H](CC(=O)O)C(=O)N[C@@H](CCC(=O)O)C(=O)N[C@@H](CCCNC(=N)N)C(=O)N[C@@H](CC(C)C)C(=O)N[C@@H](CC(C)C)C(=O)N[C@@H](CCC(=O)O)C(=O)N[C@@H](CCC(=O)O)C(=O)N[C@@H](C)C(=O)N[C@@H](CCC(=O)O)C(=O)N[C@@H](CCCNC(=N)N)C(=O)N[C@@H](CC(C)C)C(=O)N[C@@H](CC(C)C)C(=O)N[C@@H](CCC(=O)O)C(=O)N[C@@H](CCC(=O)O)C(=O)N[C@H](C(=O)N[C@@H](CCC(=O)O)C(=O)N[C@@H](CCCNC(=N)N)C(=O)NCCOCCOCCOCCOCCOCCOCCOCCOCCC(=O)NCCOCCOCCOCCOCCOCCOCCOCCOCCC(=O)N[C@@H](CC(=O)O)C(=O)N[C@H]1CSSC[C@@H](C(=O)N[C@H](C(N)=O)[C@@H](C)O)NC(=O)[C@H](Cc2c[nH]c3ccccc23)NC(=O)[C@H](C(C)C)NC(=O)[C@H](CC(C)C)NC(=O)[C@H](CCC(=O)O)NC(=O)CNC(=O)[C@H](CC(C)C)NC(=O)[C@H](Cc2c[nH]cn2)NC(=O)[C@H](Cc2c[nH]c3ccccc23)NC(=O)[C@H](C)NC1=O)C(C)C` [Compound 124]: the EC50 in experiment [3] was 0.43 nM.

For the compound “Ac-DKEWILQKIYEIMRLLDELGHAEASMRVSDLIYEFMKKGDERLLEEAERLLEEVEREAAAKEAAAKDCAWHLGELVWCT-NH2 (disulfide 68-78) [Compound 146]”, the 50% effective concentration (EC50) turned out to be 0.02 nM in experiment [1] ([…]) and 0.27 nM in experiment [3]. For the same compound, the IC50 in experiment [2] was 1 nM.

On to “DKEWILQKIYEIMRLLDELGHAEASMRVSDLIYEFMKKGDERLLEEAERLLEEVEREAAAKEAAAKDCAWHLGELVWCT-NH2 (disulfide 68-78) [Compound 173]”, for which the figures for the 50% effective concentration (EC50) in experiment [1] ([…]) and in experiment [3] were 0.04 nM and 0.35 nM, respectively. The 50% inhibitory concentration (IC50) in experiment [2] was found to be 1.21 nM.

On to `CC[C@H](C)[C@H](NC(=O)[C@H](CC(C)C)NC(=O)[C@H](CC(=O)O)NC(=O)[C@H](CO)NC(=O)[C@@H](NC(=O)[C@H](CCCNC(=N)N)NC(=O)[C@H](CCSC)NC(=O)[C@H](CO)NC(=O)[C@H](C)NC(=O)[C@H](CCC(=O)O)NC(=O)[C@H](C)NC(=O)[C@H](Cc1c[nH]cn1)NC(=O)CNC(=O)[C@H](CC(C)C)NC(=O)[C@H](CCC(=O)O)NC(=O)[C@H](CC(=O)O)NC(=O)[C@H](CC(C)C)NC(=O)[C@H](CC(C)C)NC(=O)[C@H](CCCNC(=N)N)NC(=O)[C@H](CCSC)NC(=O)[C@@H](NC(=O)[C@H](CCC(=O)O)NC(=O)[C@H](Cc1ccc(O)cc1)NC(=O)[C@@H](NC(=O)[C@H](CCCCN)NC(=O)[C@H](CCC(N)=O)NC(=O)[C@H](CC(C)C)NC(=O)[C@@H](NC(=O)[C@H](Cc1c[nH]c2ccccc12)NC(=O)[C@H](CCC(=O)O)NC(=O)[C@H](CCCCN)NC(=O)[C@H](CC(=O)O)NC(=O)[C@@H](CCC(=O)O)NC(=O)[C@@H]1CSCC(=O)N[C@@H](C)C(=O)N[C@@H](CO)C(=O)N[C@@H](Cc2ccc(O)cc2)C(=O)N[C@@H](Cc2c[nH]cn2)C(=O)N[C@@H](CC(C)C)C(=O)NCC(=O)N[C@@H](CCC(=O)O)C(=O)N[C@@H](CC(C)C)C(=O)N[C@@H](C(C)C)C(=O)N[C@@H](Cc2c[nH]c3ccccc23)C(=O)N2Cc3ccccc3C[C@H]2C(=O)NC(C)(C)C(=O)N1)[C@@H](C)CC)[C@@H](C)CC)[C@@H](C)CC)C(C)C)C(=O)N[C@@H](Cc1ccc(O)cc1)C(=O)N[C@@H](CCC(=O)O)C(=O)N[C@@H](Cc1ccccc1)C(=O)N[C@@H](CCSC)C(=O)N[C@@H](CCCCN)C(=O)N[C@@H](CCCCN)C(=O)NCC(=O)N[C@@H](CC(=O)O)C(=O)N[C@@H](CCC(=O)O)C(=O)N[C@@H](CCCNC(=N)N)C(=O)N[C@@H](CC(C)C)C(=O)N[C@@H](CC(C)C)C(=O)N[C@@H](CCC(=O)O)C(=O)N[C@@H](CCC(=O)O)C(=O)N[C@@H](C)C(=O)N[C@@H](CCC(=O)O)C(=O)N[C@@H](CCCNC(=N)N)C(=O)N[C@@H](CC(C)C)C(=O)N[C@@H](CC(C)C)C(=O)N[C@@H](CCC(=O)O)C(=O)N[C@@H](CCC(=O)O)C(=O)N[C@H](C(=O)N[C@@H](CCC(=O)O)C(=O)N[C@@H](CCCNC(=N)N)C(=O)O)C(C)C` [Compound 130], for which the EC50 in experiment [3] was 1.3 nM and 1.5 nM.

As to “DKEWILQKIYEIMRLLDELGHAEASMRVSDLIYEFMKKGDERLLEEAERLLEEVERGGGGDCAWHLGELVWCT-NH2 (disulfide 62-72) [Compound 171]”, the EC50 in experiment [1] (setting [4]) amounted to 0.01 nM; in experiment [3], 0.41 nM. Further, the IC50 in experiment [2] turned out to be 1.25 nM.

In the case of `CC[C@H](C)[C@H](NC(=O)[C@H](CC(C)C)NC(=O)[C@H](CC(=O)O)NC(=O)[C@H](CO)NC(=O)[C@@H](NC(=O)[C@H](CCCNC(=N)N)NC(=O)[C@H](CCSC)NC(=O)[C@H](CO)NC(=O)[C@H](C)NC(=O)[C@H](CCC(=O)O)NC(=O)[C@H](C)NC(=O)[C@H](Cc1c[nH]cn1)NC(=O)CNC(=O)[C@H](CC(C)C)NC(=O)[C@H](CCC(=O)O)NC(=O)[C@H](CC(=O)O)NC(=O)[C@H](CC(C)C)NC(=O)[C@H](CC(C)C)NC(=O)[C@H](CCCNC(=N)N)NC(=O)[C@H](CCSC)NC(=O)[C@@H](NC(=O)[C@H](CCC(=O)O)NC(=O)[C@H](Cc1ccc(O)cc1)NC(=O)[C@@H](NC(=O)[C@H](CCCCN)NC(=O)[C@H](CCC(N)=O)NC(=O)[C@H](CC(C)C)NC(=O)[C@@H](NC(=O)[C@H](Cc1c[nH]c2ccccc12)NC(=O)[C@H](CCC(=O)O)NC(=O)[C@H](CCCCN)NC(=O)[C@H](CC(=O)O)NC(C)=O)[C@@H](C)CC)[C@@H](C)CC)[C@@H](C)CC)C(C)C)C(=O)N[C@@H](Cc1ccc(O)cc1)C(=O)N[C@@H](CCC(=O)O)C(=O)N[C@@H](Cc1ccccc1)C(=O)N[C@@H](CCSC)C(=O)N[C@@H](CCCCN)C(=O)N[C@@H](CCCCN)C(=O)NCC(=O)N[C@@H](CCC(N)=O)C(=O)N[C@@H](C)C(=O)N1CCC[C@H]1C(=O)N[C@@H](CC(=O)O)C(=O)N[C@H]1CSSC[C@@H](C(=O)N[C@H](C(=O)O)[C@@H](C)O)NC(=O)[C@H](Cc2c[nH]c3ccccc23)NC(=O)[C@H](C(C)C)NC(=O)[C@H](CC(C)C)NC(=O)[C@H](CCC(=O)O)NC(=O)CNC(=O)[C@H](CC(C)C)NC(=O)[C@H](Cc2c[nH]cn2)NC(=O)[C@H](Cc2c[nH]c3ccccc23)NC(=O)[C@H](C)NC1=O` [Compound 109], the EC50 in experiment [1] (setting [4]) was 1.2 nM and 2.2 nM. Further, the IC50 in experiment [2] came to 15.9 nM.

In the case of `CC[C@H](C)[C@H](NC(=O)[C@H](CC(C)C)NC(=O)[C@H](CC(=O)O)NC(=O)[C@H](CO)NC(=O)[C@@H](NC(=O)[C@H](CCCNC(=N)N)NC(=O)[C@H](CCSC)NC(=O)[C@H](CO)NC(=O)[C@H](C)NC(=O)[C@H](CCC(=O)O)NC(=O)[C@H](C)NC(=O)[C@H](Cc1c[nH]cn1)NC(=O)CNC(=O)[C@H](CC(C)C)NC(=O)[C@H](CCC(=O)O)NC(=O)[C@H](CC(=O)O)NC(=O)[C@H](CC(C)C)NC(=O)[C@H](CC(C)C)NC(=O)[C@H](CCCNC(=N)N)NC(=O)[C@H](CCSC)NC(=O)[C@@H](NC(=O)[C@H](CCC(=O)O)NC(=O)[C@H](Cc1ccc(O)cc1)NC(=O)[C@@H](NC(=O)[C@H](CCCCN)NC(=O)[C@H](CCC(N)=O)NC(=O)[C@H](CC(C)C)NC(=O)[C@@H](NC(=O)[C@H](Cc1c[nH]c2ccccc12)NC(=O)[C@H](CCC(=O)O)NC(=O)[C@H](CCCCN)NC(=O)[C@H](CC(=O)O)NC(C)=O)[C@@H](C)CC)[C@@H](C)CC)[C@@H](C)CC)C(C)C)C(=O)N[C@@H](Cc1ccc(O)cc1)C(=O)N[C@@H](CCC(=O)O)C(=O)N[C@@H](Cc1ccccc1)C(=O)N[C@@H](CCSC)C(=O)N[C@@H](CCCCN)C(=O)N[C@@H](CCCCN)C(=O)NCC(=O)O` [Compound 103], the half-maximal effective concentration (EC50) in experiment [1] (setting [4]) was more than 10 nM. Further, the IC50 in experiment [2] was 6.22 nM.
